From patent US9249152B2, “Cyano containing azabenzofuran compounds for the treatment of hepatitis C” (BRISTOL-MYERS SQUIBB COMPANY, priority 2014, dated 2016)
Like-named read-outs stand apart in the source and are kept apart here.

System: genotype 1b (Con-1) HCV replicon
Assay: HCV replicon luciferase assay, genotype 1b (Con-1)
Assay type: cell-based
Conditions: genotype 1b HCV replicon, Huh-7 cells, Renilla luciferase, 3 days
Method: The cell lines used to evaluate compounds consist of a human hepatocyte derived cell line (Huh-7) that constitutively expresses a genotype 1b (Con-1) HCV replicon or a genotype 1b (Con-1) HCV replicon with an asparagine replacing the cysteine at amino acid 316, or a genotype 2a (JFH-1) replicon, containing a Renilla luciferase reporter gene. These cells were maintained in Dulbecco's modified Eagle medium (DMEM) containing 10% FBS, 100 U/mL penicillin/streptomycin and 1.0 mg/mL G418.
To evaluate compound efficacy, titrated compounds were transferred to sterile 384-well tissue culture treated plates, and the plates were seeded with HCV replicon cells (50 μL at a density of 2.4×10^3 cells/well) in DMEM containing 4% FBS (final DMSO concentration at 0.5%). After 3 days incubation at 37° C., cells were analyzed for Renilla Luciferase activity using the EnduRen substrate (Promega cat #E6485) according to the manufacturer's directions. Briefly, the EnduRen substrate was diluted in DMEM and then added to the plates to a final concentration of 7.5 μM. The plates were incubated for at least 1 h at 37° C. then read on a Viewlux Imager (PerkinElmer) using a luminescence program. The 50% effective concentration (EC50) was calculated using the four-parameter logistic formula noted above.

[1] = Hepatitis C virus, Huh-7, 72 h, read-out: EC50 1b (class)
[2] = Hepatitis C virus, Huh-7, 72 h, read-out: EC50 (uM) 1b

SMILES | EC50 [1] [µM] | EC50 [2] [µM] | EC50 (read-out: EC50 1b (class)) [µM]
CNC(=O)c1c(-c2ccc(F)cc2)oc2nc(NCC(F)(F)F)c(-c3cccc(C(=O)NC(C)(C#N)C(C)C)c3)cc12 (stereo not shown) [Compound K4004] | < 0.1 | 0.004 | –
CNC(=O)c1c(-c2ccc(F)cc2)oc2nc(NCC(F)(F)F)c(-c3cnc(OC)c(C(=O)NC(C)(C)C#N)c3)cc12 [Compound K8001] | < 0.1 | – | –
CNC(=O)c1c(-c2ccc(F)cc2)oc2nc(CCC(F)(F)F)c(-c3cnc(OC)c(C(=O)NC(C)(C)C#N)c3)cc12 [Compound K7001] | < 0.1 | – | –
CNC(=O)c1c(-c2ccc(F)cc2)oc2nc(CCC(F)(F)F)c(-c3cccc(C(=O)NC4(C#N)CCCC4)c3)cc12 [Compound 11003] | < 0.1 | 0.0046 | –
CNC(=O)c1c(-c2ccc(F)cc2)oc2nc(NCC(F)(F)F)c(-c3cccc(C(=O)NC(C)C#N)c3)cc12 (stereo not shown) [Compound 20002] | < 0.1 | – | –
CNC(=O)c1c(-c2ccc(F)cc2)oc2nc(Cl)c(-c3cccc(C(=O)NC(C)(C)C#N)c3)cc12 [Compound 10004] | 0.1 to 1 | 0.105 | –
CNC(=O)c1c(-c2ccc(F)cc2)oc2nc(NCC(F)(F)F)c(-c3ccc(F)c(C(=O)NC(C)C#N)c3)cc12 (stereo not shown) [Compound 22002] | – | – | < 0.1
CNC(=O)c1c(-c2ccc(F)cc2)oc2nc(CCC(F)(F)F)c(-c3cc(F)c(F)c(C(=O)NC(C)(C#N)C4CC4)c3)cc12 (stereo not shown) [Compound 17001] | < 0.1 | 0.0018 | –
CNC(=O)c1c(-c2ccc(F)cc2)oc2nc(NCC(F)(F)F)c(-c3ccc(OC)c(C(=O)NC4(C#N)CC4)c3)cc12 [Compound K5002] | < 0.1 | – | –
CNC(=O)c1c(-c2ccc(F)cc2)oc2nc(NCC(F)(F)F)c(-c3cc(F)cc(C(=O)NC(C)(C)C#N)c3)cc12 [Compound 23002] | < 0.1 | 0.0072 | –
CNC(=O)c1c(-c2ccc(F)cc2)oc2nc(NCC(F)(F)F)c(-c3ccc(F)c(C(=O)NC(C)(C#N)C4CC4)c3)cc12 (stereo not shown) [Compound 22004] | < 0.1 | 0.004 | –
CNC(=O)c1c(-c2ccc(F)cc2)oc2nc(NCCO)c(-c3cccc(C(=O)NC(C)(C)C#N)c3)cc12 [Compound 40001] | < 0.1 | – | –
CNC(=O)c1c(-c2ccc(F)cc2)oc2nc(NCC(F)(F)F)c(-c3cccc(C(=O)NC(C)(C#N)C4CC4)c3)cc12 (stereo not shown) [Compound 20008] | – | – | < 0.1
CNC(=O)c1c(-c2ccc(F)cc2)oc2nc(NCC(F)(F)C(F)(F)F)c(-c3cccc(C(=O)NC(C)(C)C#N)c3)cc12 [Compound 30001] | < 0.1 | – | –
CNC(=O)c1c(-c2ccc(F)cc2)oc2nc(NCC(F)(F)F)c(-c3ccc(OC)c(C(=O)NC4(C#N)CCC4)c3)cc12 [Compound K5001] | < 0.1 | – | –
CNC(=O)c1c(-c2ccc(F)cc2)oc2nc(NCC(F)(F)F)c(-c3ccc(F)c(C(=O)NC4(C#N)CCC4)c3)cc12 [Compound K2003] | < 0.1 | – | –
CNC(=O)c1c(-c2ccc(F)cc2)oc2nc(NCC(F)(F)F)c(-c3ccc(F)c(C(=O)NC(C)(C#N)C4CC4)c3)cc12 (stereo not shown) [Compound 22005] | – | – | < 0.1
CNC(=O)c1c(-c2ccc(F)cc2)oc2nc(NCC(F)(F)F)c(-c3cccc(C(=O)NC(C)C#N)c3)cc12 (stereo not shown) [Compound 20003] | – | – | < 0.1
CNC(=O)c1c(-c2ccc(F)cc2)oc2nc(CCC(F)(F)F)c(-c3ccc(F)c(C(=O)NC4(C#N)CC4)c3)cc12 [Compound K1001] | < 0.1 | 0.0061 | –
CNC(=O)c1c(-c2ccc(F)cc2)oc2nc(NCC(F)(F)F)c(-c3ccc(OC)c(C(=O)NC4(C#N)CCCC4)c3)cc12 [Compound K5003] | < 0.1 | – | –
CNC(=O)c1c(-c2ccc(F)cc2)oc2nc(CCC(F)(F)F)c(-c3cc(F)cc(C(=O)NC(C)(C)C#N)c3)cc12 [Compound 14001] | < 0.1 | 0.0022 | –

SMILES | EC50 [1] [µM] | EC50 [2] [µM] | EC50 (read-out: EC50 1b (class)) [µM]
CNC(=O)c1c(-c2ccc(F)cc2)oc2nc(CCC(F)(F)F)c(-c3ccc(F)c(C(=O)NC(C)(C#N)C(C)C)c3)cc12 (stereo not shown) [Compound 13002] | < 0.1 | 0.0024 | –
CNC(=O)c1c(-c2ccc(F)cc2)oc2nc(NCC(F)(F)F)c(-c3cnc(OC)c(C(=O)NC4(C#N)CC4)c3)cc12 [Compound K8003] | < 0.1 | – | –
CNC(=O)c1c(-c2ccc(F)cc2)oc2nc(NCC(F)(F)F)c(-c3ccc(OC)c(C(=O)NC(C)(C#N)C(C)C)c3)cc12 (stereo not shown) [Compound K5004] | < 0.1 | 0.0028 | –
CNC(=O)c1c(-c2ccc(F)cc2)oc2nc(CCC(F)(F)F)c(-c3ccc(OC)c(C(=O)NC(C)(C#N)C(C)C)c3)cc12 (stereo not shown) [Compound 12004] | < 0.1 | 0.0033 | –
CNC(=O)c1c(-c2ccc(F)cc2)oc2nc(NCC(F)(F)F)c(-c3cccc(C(=O)NC(C)C#N)c3)cc12 (stereo not shown) [Compound 20004] | – | – | < 0.1
CNC(=O)c1c(-c2ccc(F)cc2)oc2nc(NCC(F)(F)F)c(-c3cccc(C(=O)NC(C)(C#N)C4CC4)c3)cc12 (stereo not shown) [Compound 20006] | < 0.1 | 0.0031 | –
CNC(=O)c1c(-c2ccc(F)cc2)oc2nc(Cl)c(-c3cccc(C(=O)NC4(C#N)CCC4)c3)cc12 [Compound 10005] | < 0.1 | – | –
CNC(=O)c1c(-c2ccc(F)cc2)oc2nc(CCC(F)(F)F)c(-c3cccc(C(=O)NC(C)(C#N)C4CC4)c3)cc12 (stereo not shown) [Compound 11006] | – | 0.0022 | < 0.1
CNC(=O)c1c(-c2ccc(F)cc2)oc2nc(CCC(F)(F)F)c(-c3cccc(C(=O)NC4(C#N)CCC4)c3)cc12 [Compound 11002] | < 0.1 | – | –
CNC(=O)c1c(-c2ccc(F)cc2)oc2nc(CCC(F)(F)F)c(-c3ccc(F)c(C(=O)NC4(C#N)CCC4)c3)cc12 [Compound K1002] | < 0.1 | – | –
CNC(=O)c1c(-c2ccc(F)cc2)oc2nc(Cl)c(-c3ccc(OC)c(C(=O)NC4(C#N)CCCC4)c3)cc12 [Compound 10003] | < 0.1 | – | –
CNC(=O)c1c(-c2ccc(F)cc2)oc2nc(CCC(F)(F)F)c(-c3ccc(OC)c(C(=O)NC4(C#N)CCCC4)c3)cc12 [Compound 12003] | < 0.1 | – | –
CNC(=O)c1c(-c2ccc(F)cc2)oc2nc(NCC(F)(F)F)c(-c3cccc(C(=O)NC(C)(C)C#N)c3)cc12 [Compound 20001] | < 0.1 | – | –
CNC(=O)c1c(-c2ccc(F)cc2)oc2nc(NCC(F)(F)C(F)(F)F)c(-c3cccc(C(=O)NC(C)(C#N)C(C)C)c3)cc12 (stereo not shown) [Compound 30002] | < 0.1 | 0.0394 | –
CNC(=O)c1c(-c2ccc(F)cc2)oc2nc(CCC(F)(F)F)c(-c3cnc(OC)c(C(=O)NC(C)(C#N)C(C)C)c3)cc12 (stereo not shown) [Compound K7005] | < 0.1 | 0.0028 | –
CNC(=O)c1c(-c2ccc(F)cc2)oc2nc(NCC(F)(F)F)c(-c3cccc(C(=O)NC(C)(C#N)C4CC4)c3)cc12 (stereo not shown) [Compound 20007] | – | – | < 0.1
CNC(=O)c1c(-c2ccc(F)cc2)oc2nc(NCC(F)(F)F)c(-c3ccc(OC)c(C(=O)NC(C)(C)C#N)c3)cc12 [Compound 21001] | < 0.1 | – | –
CNC(=O)c1c(-c2ccc(F)cc2)oc2nc(NCC(F)(F)F)c(-c3cc(Cl)c(NCC(F)(F)F)c(C(=O)NC(C)(C)C#N)c3)cc12 [Compound 24001] | < 0.1 | 0.0539 | –
CNC(=O)c1c(-c2ccc(F)cc2)oc2nc(NCC(F)(F)F)c(-c3ccc(F)c(C(=O)NC(C)(C)C#N)c3)cc12 [Compound K2001] | < 0.1 | – | –
CC[C@H](C)c1nc2oc(-c3ccc(F)cc3)c(C(=O)NC)c2cc1-c1cccc(C(=O)NC(C)(C)C#N)c1 [Compound K11001] | < 0.1 | 0.0133 | –
